Measurements reported in ChEMBL document CHEMBL1151145, “Minor Bioactive Polyacetylenes from Petrosia ficiformis” (J Nat Prod, 1990).
≈ marks a conversion by molar mass, not a printed value.

Experiments:
[1] = Inhibition of sea urchin egg development after 48 hrs; conditions: echinoidea, sea urchin eggs
[2] = Toxicity against Artemia salina after 24 hrs; format: organism-based; conditions: in vivo
[3] = tested on: Agrobacterium tumefaciens; experiment: Inhibition of Agrobacterium tumefaciens-induced tumor formation in potato at 0.5 mg/ml by antitumor potato disk assay; format: functional

| Structure (SMILES) | LC50 at 48 h [1] [µg/mL] | LC50 at 24 h [2] [µg/mL] | inhibition at 500 µg/mL [3] [%] |
| --- | --- | --- | --- |
| C#CCCCCCCCCCCCCCCCC/C=C\CC/C=C/C#C[C@@H](O)C#CCCCC/C=C\CCCCCC/C=C/[C@H](O)C#C [PETROFORMYNE 3] | 10 (≈ 15.3 µM) | 0.003 (≈ 0.00458 µM) | 49 |
| C#C[C@@H](O)/C=C/CCCCCC/C=C\CCCCC#C[C@H](O)C#C/C=C/CC/C=C\CCCCCCCCCCCCC/C=C/[C@H](O)C#C [PETROFORMYNE 1] | 10 (≈ 14.9 µM) | 0.014 (≈ 0.0209 µM) | 35 |
| C#CC(O)/C=C/CCCCCCCCCCCCCCCCCCCCCCCCCCCCCCCCC/C=C\C#CC(=O)OC (stereo unspecified) | – | 0.002 (≈ 0.00306 µM) | – |
| C#CC(O)/C=C/CC/C=C\CCCC/C=C\CCC#CC(O)C#C/C=C/CC/C=C\CCCCCCCCCCCCC/C=C/C(O)C#C (stereo unspecified) | 1 (≈ 1.5 µM) | 0.009 (≈ 0.0135 µM) | 15 |
| C#C/C=C\CCCCCCCCCCCCCC/C=C\CC/C=C/C#CC(O)C#CCCCC/C=C\CCCCCC/C=C/C(O)C#C (stereo unspecified) | 50 (≈ 76.6 µM) | 0.0075 (≈ 0.0115 µM) | 43 |
| C#C/C=C\CCCCCCCCCCCCCC/C=C\CC/C=C/C#CC(O)C#CCCCC/C=C\CCCCCC/C=C/C(=O)C#C (stereo unspecified) | – | 0.04 (≈ 0.0614 µM) | – |
| C#CC(O)/C=C/CCCCCCCCCCCCCCCCCCCCCCCCCCCCCCCCCCC/C=C\C#CC(=O)OC (stereo unspecified) [PETROFORMYNE B] | – | 0.0025 (≈ 0.00367 µM) | – |
| C#CCCCCCCCCCCCCCCCC/C=C\CC/C=C/C#CC(O)C#CCCCC/C=C\CCCCCC/C=C/C(=O)C#C (stereo unspecified) [PETROFORMYNE 6] | – | 0.12 (≈ 0.184 µM) | – |
